Measured values reported in patent US20220127263A1, “Novel Compounds for the Treatment, Alleviation or Prevention of Disorders Associated with Tau Aggregates” (AC Immune SA, priority 2019, published 2022).
Read-outs that look alike come from different tables or passages of the source.

Legend:
[1] = biological target: T1, Tau K18 aggregates (Tau K18 fragment, amino acids 244 to 372 of human Tau441) (Homo sapiens, UniProt P10636); assay: Tau K18 disaggregation assay by ThT; type: biochemical; details: 2 μM K18 aggregates, 160 to 0.04 μM compound, 30 min RT, ThT fluorescence
T1 construct: encompassing amino acids 244 to 372 of the longest isoform (2N4R) of human Tau441; host or cells: bacteria
Experimental: Tau K18 Disaggregation Assay by ThT
The Tau K18 fragment, encompassing amino acids 244 to 372 of the longest isoform (2N4R) of human Tau441, was expressed in bacteria and purified or bought from SignalChem. For the K18 disaggregation assay by ThT, 35 μM of recombinant K18 in PBS were aggregated for 24 hours at 37° C. in presence of 50 μM of heparin (Sigma-Aldrich) and 10 mM of DTT (Sigma-Aldrich) under shaking at 750 RPM. Compounds were dissolved in anhydrous dimethyl sulfoxide (DMSO, Sigma-Aldrich) to reach a concentration of 10 mM. K18 aggregates and serial dilutions of compounds were mixed together in PBS (volume 50 μL) to a final concentration of 2 μM of K18 aggregates and from 160 to 0.04 μM of compounds. The mixture was incubated for 30 minutes at room temperature (RT), then 40 μL of this mixture were transferred into a black 384-well plate assay (Perkin-Elmer) and mixed with 10 μL of 100 μM ThT in 250 mM glycine (both from Sigma-Aldrich) in PBS. Fluorescence (relative fluorescence units; RFU) was measured in monoplicate or duplicate on a Tecan reader (excitation: 440 nm; emission: 485 nm). Percentage of K18 disaggregation was then calculated and half maximal effective concentration (EC50) was determined using GraphPad Prism version 5 (GraphPad Software) assuming a one-binding site fitting model.

[2] = CSF/Plasma ratio determination, in-vivo pharmacokinetics mouse p.o.; set-up: species or system CD-1 male mice; details: for CSF/plasma AUC ratio / AUC(0-t): male, CD-1, po; for AUC(0-t): plasma, read-out: Plasma AUC0-last
Experimental: CSF/Plasma Ratio Determination
Test compounds were administered to CD-1 male mice as a single oral dose of 10 or 20 mg/kg of a homogenous suspension (10 mL/kg, 1 or 2 mg/mL in 0.5% CMC (w/v) in water) by gavage using a plastic syringe fitted with a metal gavage tube. Terminal blood, brain and CSF samples were collected from three animals at several time points, typically at 2, 4, 8 and 24 h post-dose.
Blood samples were transferred into 1.5-mL plastic tubes containing K2-EDTA (0.5M, 3 uL) as an anti-coagulant and placed on wet ice, and were then processed to obtain plasma by centrifugation at approximately 5° C. (3000 g, 15 min) within 30 min after collection. An aliquot of 10 μL sample was protein precipitated with 150 μL IS, the mixture was vortex-mixed well and centrifuged at 13000 rpm for 10 min, 4° C. 30 μL supernatant was then mixed with 30 μL water, vortex-mixed well and centrifuged at 4° C. 2 μL sample was injected for LC-MS/MS analysis.
The collected CSF was transferred to polypropylene microcentrifuge tubes. CSF samples were added with an equal volume of plasma. An aliquot of 6 μL sample was protein precipitated with 90 μL IS, the mixture was vortex-mixed well and centrifuged at 13000 rpm for 10 min, 4° C. 30 μL supernatant was then mixed with 30 μL water, vortex-mixed well and centrifuged at 4° C. 2 μL sample was injected for LC-MS/MS analysis.
Test substance concentration in plasma and CSF versus time data were analyzed by non-compartmental approaches; AUC0-last in plasma and CSF were calculated with the log-linear trapezoidal rule. CSF/Plasma ratio was calculated as follows:
AUC0-last(CSF)/AUC0-last(plasma)

[3] = biological target: T2, full-length Tau (flTau, 2N4R) aggregates (Homo sapiens, UniProt P10636); assay: Tau disaggregation assay by DLS (dynamic light scattering); type: biochemical; details: 2 μM flTau aggregates, 20 μM compound, 60 min RT
T2 construct: 35 μM of recombinant full-length (fl)Tau in PBS were aggregated; made in house; host or cells: bacteria
Experimental: Tau disaggregation assay by DLS (dynamic light scattering)
The longest isoform of human Tau (2N4R; 441 amino acids) was expressed in bacteria. For the Tau disaggregation assay by DLS, 35 μM of recombinant full-length (fl)Tau in PBS were aggregated for 24 h at 37° C. in presence of 50 μM of heparin (Sigma-Aldrich) and 10 mM of DTT (Sigma-Aldrich) under shaking at 750 RPM. Morphomers™ were dissolved in DMSO (Sigma-Aldrich) to reach a concentration of 10 mM. flTau aggregates and compounds were mixed together in PBS (volume 80 μL) to a final concentration of 2 μM of flTau aggregates and 20 μM of Morphomers™. The mixture was incubated for 60 min at RT. Then […] of solution was transferred into a 40 μl cuvette (Malvern) and the size of flTau aggregates was measured with a Zetasizer Nano (Malvern) at an angle of 173° with 3 runs of 5 times 15 sec each. Number of events were taken into consideration to assess size of flTau aggregates. Percentage of disaggregation was then measured using the dynamic range between flTau monomers and flTau aggregates.

[4] = 20 mg/kg, AUC0-last(CSF)/AUC0-last(plasma)

T1 sequence (P10636 561-689): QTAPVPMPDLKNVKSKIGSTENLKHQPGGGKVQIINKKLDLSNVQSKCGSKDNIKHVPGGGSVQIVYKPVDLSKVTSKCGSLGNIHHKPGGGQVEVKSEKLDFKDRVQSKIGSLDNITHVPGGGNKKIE
T2 sequence (P10636 1-441 isoform P10636-8): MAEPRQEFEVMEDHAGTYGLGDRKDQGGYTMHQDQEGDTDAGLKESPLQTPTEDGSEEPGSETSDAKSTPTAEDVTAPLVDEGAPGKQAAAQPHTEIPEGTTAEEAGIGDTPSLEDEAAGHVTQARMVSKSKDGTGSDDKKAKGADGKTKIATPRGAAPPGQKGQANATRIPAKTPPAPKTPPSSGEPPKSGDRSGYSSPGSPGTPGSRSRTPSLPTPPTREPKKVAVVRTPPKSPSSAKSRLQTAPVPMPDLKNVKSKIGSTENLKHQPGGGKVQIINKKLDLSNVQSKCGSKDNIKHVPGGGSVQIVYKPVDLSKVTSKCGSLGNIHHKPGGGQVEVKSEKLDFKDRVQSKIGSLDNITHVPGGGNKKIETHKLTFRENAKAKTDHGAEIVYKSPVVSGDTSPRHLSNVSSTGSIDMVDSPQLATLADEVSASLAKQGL

Row | SMILES | EC50 [1] [µM] | CSF AUC0-last ([2]; 20 mg/kg) [ng·h/mL] | CSF/plasma AUC ratio [2, 4] | AUC(0-t) ([2]; 20 mg/kg) [ng·h/mL] | CSF AUC0-last ([2]; 10 mg/kg) [ng·h/mL] | CSF/plasma AUC ratio ([2]; 10 mg/kg, AUC0-last(CSF)/AUC0-last(plasma)) | AUC(0-t) ([2]; 10 mg/kg) [ng·h/mL] | DLS % Percentage of disaggregation (flTau) [3] [%] | CSF/Plasma ratio [2, 4]
1 | Fc1ccc2[nH]c3c(c2c1)CN(c1ccc2oc(N4CCOCC4)nc2c1)CC3 [Comparative Example 1] | < 10 | 121.03 | 0.007 | 17400 |  |  |  |  | 
2 | Fc1ccc2c3c([nH]c2c1)CCN(c1ccc2oc(N4CCOCC4)nc2c1)C3 [Comparative Example 2] | < 10 | 56.70 | 0.003 | 17800 |  |  |  |  | 
3 | Fc1cccc2[nH]c3c(c12)CN(c1ccc2oc(N4CCOCC4)nc2c1)CC3 [Comparative Example 3] | < 10 |  |  |  | 19.705 | 0.004 | 4590 |  | 
4 | Fc1cccc2c3c([nH]c12)CCN(c1ccc2oc(N4CCOCC4)nc2c1)C3 [Comparative Example 4] | < 10 | 66.5 | 0.005 | 14500 |  |  |  |  | 
5 | c1ccc2c3c([nH]c2c1)CCN(c1ccc2oc(N4CCOCC4)nc2c1)C3 [Example 1] | < 10 | 327.0 | 0.014 | 23700 |  |  |  | 25 | highest CSF/plasma ratio
6 | c1ccc2c3c([nH]c2c1)CCN(c1ccc2oc(N4CCOCC4)nc2n1)C3 [Example 5] | < 10 |  |  |  |  |  |  |  | 
